Results: ChEMBL document CHEMBL3352682, “Unusual C,O-Fused Glycosylapigenins from Serjania marginata Leaves” (J Nat Prod, 2015)
≈ marks a conversion by molar mass, not a printed value.

Columns and labels:
[1] = Antioxidant activity assessed as DPPH radical scavenging activity after 30 mins by UV-spectrophotometry; format: physicochemical
[2] = Antioxidant activity assessed as DPPH radical scavenging activity at <= 20 ug/ml after 30 mins by UV-spectrophotometry; format: physicochemical; details: 0.5 h

| SMILES | IC50 [1] | inhibition (INH) [2] |
| --- | --- | --- |
| C[C@@H]1O[C@@H](O[C@H]2C(=O)[C@@H](O)[C@H](C)O[C@@H]2c2c(O)cc3oc(-c4ccc(O)cc4)cc(=O)c3c2O)[C@H](O)[C@H](O)[C@H]1O | Not Active | Not Active |
| C[C@@H]1O[C@@H](O[C@H]2C(=O)[C@@H](O)[C@H](C)O[C@@H]2c2c(O)cc(O)c3c(=O)cc(-c4ccc(O)cc4)oc23)[C@H](O)[C@H](O)[C@H]1O | Not Active | Not Active |
| O=C(O)c1cc(O)c(O)c(O)c1 [GALLIC ACID] | 8.42 µg/mL (≈ 49.5 µM) |  |

Results, then the compound that gave them:

| IC50 [1] | inhibition (INH) [2] | SMILES |
| --- | --- | --- |
| 5.3 µg/mL (≈ 6.13 µM) |  | Oc1cc(O)c2c(c1)O[C@@]1(c3ccc(O)c(O)c3)Oc3cc(O)c4c(c3[C@@H]2[C@H]1O)O[C@H](c1ccc(O)c(O)c1)[C@H](O)[C@H]4c1c(O)cc(O)c2c1O[C@H](c1ccc(O)c(O)c1)[C@H](O)C2 [CINNAMTANNIN B1] |
| 8.55 µg/mL (≈ 14.8 µM) |  | Oc1cc(O)c2c(c1)O[C@@]1(c3ccc(O)c(O)c3)Oc3cc(O)c4c(c3[C@@H]2[C@H]1O)O[C@H](c1ccc(O)c(O)c1)[C@@H](O)C4 [PROANTHOCYANIDIN A1] |
| 9.71 µg/mL (≈ 16.8 µM) |  | Oc1cc(O)c2c(c1)O[C@@]1(c3ccc(O)c(O)c3)Oc3cc(O)c4c(c3[C@@H]2[C@H]1O)O[C@H](c1ccc(O)c(O)c1)[C@H](O)C4 [PROANTHOCYANIDIN A2] |
